How the values were obtained:
Assay in all cases: Tyrosine kinase activity inhibition rate in cell membrane fraction (Poly-Glu4-Tyr substrate)
Assay type in all cases: biochemical
Settings in all cases: 25 μM kinase inhibitor, 25 μM ATP
[1] = test system: tyrosine kinase in cell membrane fraction of T47D
Description: (§1) Breast cancer cell lines shown in Table 3 were cultured in a 150 mm dish so as to be about 80% confluent, the cells were recovered using PBS and a scraper, and a cell pellet was obtained by centrifugal operation (900×g, for 5 minutes, at 4° C.). The pellet was frozen with liquid nitrogen and stored at −80° C. until preparation of the measurement sample.
(§2) 500 μl of NP40 (−) solubilized buffer (20 mM HEPES (pH 7.4)), (w/v) % glycerol, 0.2% protease inhibitor cocktail (#P8340: Sigma-Aldrich (product composition: 104 mM AEBSF, 80 μM aprotinin, 4 mM bestatin, 1.4 mM E-64, 2 mM leupeptin, 1.5 mM Pepstatin A), 50 mM NaF and 200 μM Na3VO4) was added to the cell pellet, followed by stirring for 2 seconds three times using a vortex mixer. After being allowed to stand for 10 minutes, the soluble fraction was removed by centrifugal operation (at 20000×g, for 30 minutes, at 4° C.). The obtained pellet was resuspended in 500 μl of NP40 (−) solubilized buffer, the soluble fraction was again removed by centrifugal operation (at 20000×g, for 20 minutes, at 4° C.), and the pellet was washed. The pellet was resuspended by adding 500 μl of NP40 (+) solubilized buffer (a buffer prepared by adding NP-40 to the NP40 (−) solubilized buffer at a final concentration of 1%) to the pellet, pipetting fifty times, and vortexing for 2 seconds three times. After being allowed to stand for 10 minutes, a cell membrane fraction containing a membrane protein was obtained by centrifugal operation (at 20000×g, for 40 minutes, at 4° C.). The protein concentration of the fraction was measured by DC protein assay (#500-0116 JA: Bio-Rad) and the fraction was used as a sample for kinase activity measurement. The sample was frozen with liquid nitrogen and stored at −80° C. until used for the following kinase activity measurement.
(§3) NeutrAvidin Coated Plates (HBC) (96 white plate; #15509: Pierce) were washed three times with 300 μl of TBS-T (20 mM Tris-HCl (pH 7.4)), 150 mM NaCl, 0.1% Tween), and then 100 μl of Poly-Glu4-Tyr biotin conjugate (#12440: Upstate) which had been diluted to 1 μg/ml with TBS (20 mM Tris-HCl (pH 7.4), 150 mM NaCl) was added to the wells. After shaking at 37° C. and 400 rpm for 90 minutes, the wells were washed with 300 μl of TBS-T three times and a measuring plate was obtained.
(§4) The measurement sample was diluted with a kinase buffer (20 mM HEPES (pH 7.4), 25 mM MgCl2, 1.25 mM MnCl2, 250 μM Na3VO4, 12.5 (w/v) % glycerol) so as to adjust the protein concentration to 6.25 μg/ml. The diluted measurement sample was transferred to wells of a 96 well V bottom plate. A DMSO solution (inhibitor concentration: 5 mM) containing one type of tyrosine kinase inhibitors (Inhibitors 1 to 10 shown in Table 6) was added to the wells at a ratio of 1:160 based on the diluted measurement sample solution, followed by mixing thereof. As the control, DMSO was added to the diluted measurement sample at the same ratio as the solution of the inhibitor. The used tyrosine kinase inhibitors are represented as Inhibitors 1 to 10 in Table 6.
(§5) After addition of the inhibitors, a mixed solution of the measurement sample and the inhibitor was allowed to stand at room temperature for 10 minutes. 40 μl of the mixed solution was transferred to wells of the measuring plate and 10 μl of an ATP solution (20 mM HEPES (pH 7.4), […]) as the phosphate group donor was added to the wells.
(§6) The composition of the solution in the wells is as follows: protein concentration: 5 μg/ml, 20 mM HEPES (pH 7.4), 20 mM MgCl2, 1 mM MnCl2, 200 μM Na3VO4, 10 (w/v) % glycerol, 25 μM ATP, 25 μM kinase inhibitor.
(§7) After shaking the measuring plate at 37° C. and 400 rpm for 60 minutes, the solution was removed from the measuring plate, and the wells were washed with 300 μl of TBS-T three times. 100 μl of Starting Block T20 (TBS) (#37543: Pierce) as a blocking solution was added to the wells, followed by blocking at 37° C. and 400 rpm for 10 minutes. The blocking solution was removed from the measuring plate. […]

[2] = test system: tyrosine kinase in cell membrane fraction of HCC1569
Description: as §1, §2, §3, §4, §5, §6, §7

[3] = test system: tyrosine kinase in cell membrane fraction of HCC1937
Description: as §1, §2, §3, §4, §5, §6, §7

[4] = test system: tyrosine kinase in cell membrane fraction of MDA-MB-436
Description: as §1, §2, §3, §4, §5, §6, §7

[5] = test system: tyrosine kinase in cell membrane fraction of MDA-MB-415
Description: as §1, §2, §3, §4, §5, §6, §7

[6] = test system: tyrosine kinase in cell membrane fraction of MDA-MB-231
Description: as §1, §2, §3, §4, §5, §6, §7

[7] = test system: tyrosine kinase in cell membrane fraction of HCC1954
Description: as §1, §2, §3, §4, §5, §6, §7

[8] = test system: tyrosine kinase in cell membrane fraction of MDA-MB-157
Description: as §1, §2, §3, §4, §5, §6, §7

[9] = test system: tyrosine kinase in cell membrane fraction of HCC202
Description: as §1, §2, §3, §4, §5, §6, §7

[10] = test system: tyrosine kinase in cell membrane fraction of HCC1419
Description: as §1, §2, §3, §4, §5, §6, §7

[11] = test system: tyrosine kinase in cell membrane fraction of BT-483
Description: as §1, §2, §3, §4, §5, §6, §7

[12] = test system: tyrosine kinase in cell membrane fraction of ZR-75-30
Description: as §1, §2, §3, §4, §5, §6, §7

Row | SMILES | Inhibition rate [1] [%] | Inhibition rate [2] [%] | Inhibition rate [3] [%] | Inhibition rate [4] [%] | Inhibition rate [5] [%] | Inhibition rate [6] [%] | Inhibition rate [7] [%] | Inhibition rate [8] [%] | Inhibition rate [9] [%] | Inhibition rate [10] [%] | Inhibition rate [11] [%] | Inhibition rate [12] [%]
1 | COc1cc2ncnc(Nc3cccc(Cl)c3)c2cc1OC [Inhibitor 1] | 29.1 | 44.7 | 46.0 | 33.9 | 41.3 | 56.4 | 39.4 | 45.0 | 29.7 | 34.9 | 54.7 | 20.1
2 | CN1CCC(Nc2ncc3ncnc(Nc4ccc(F)c(Cl)c4)c3n2)CC1 [Inhibitor 2] | 7.7 | 25.0 | 28.1 | 19.0 | 25.0 | 23.5 | 19.7 | 14.3 | 7.7 | 6.2 | 40.3 | 4.4
3 | COc1cc2ncnc(Nc3ccc(OCc4ccccc4)cc3)c2cc1OC [Inhibitor 3, 4-(4-benzyloxyanilino)-6,7-dimethoxyquinazoline] | 30.2 | 42.3 | 24.1 | 48.7 | 50.5 | 42.0 | 31.8 | 38.0 | 24.5 | 43.3 | 68.5 | 37.2
4 | CN(C)c1cc2c(Nc3ccc4c(cnn4Cc4ccccc4)c3)ncnc2cn1 [Inhibitor 4, N4-(1-benzyl-1H-indazol-5-yl)-N6,N6-dimethyl-pyrido-[3,4-d]-pyrimidine-4,6-diamine] | 27.0 | 37.9 | 17.9 | 26.3 | 19.6 | 38.9 | 23.2 | 29.2 | 21.3 | 23.8 | 52.7 | 20.9
5 | CS(=O)(=O)CCNCc1nc(-c2ccc3ncnc(Nc4ccc(OCc5cccc(F)c5)c(Cl)c4)c3c2)cs1.Cl.Cl [Inhibitor 5, N-[3-chloro-4-[(3-fluorophenyl)methoxy]phenyl]-6-[2-[[[2-(methylsulfonyl)ethyl]amino]methyl]-4-thiazolyl]-4-quinazolineamine dihydrochloride] | 50.9 | 60.7 | 42.3 | 68.5 | 48.1 | 58.2 | 59.5 | 56.1 | 66.2 | 63.6 | 66.9 | 64.4
6 | COc1cc2c(cc1OC)-c1[nH]nc(Nc3cccc(F)c3)c1C2 [Inhibitor 6] | 37.5 | 57.8 | 41.8 | 36.1 | 50.9 | 45.7 | 41.5 | 49.0 | 27.1 | 33.5 | 62.9 | 27.0
7 | CCCNC(=O)Nc1ccc(Oc2ncnc3cc(OC)c(OC)cc23)cc1Cl [Inhibitor 7] | 22.0 | 16.6 | 17.3 | 23.1 | 25.1 | 9.7 | 17.6 | 11.2 | 33.4 | 28.4 | 17.3 | 18.5
8 | Cc1cc(F)c(Nc2ncnc3cc(OCc4ccccc4)ccc23)cc1O.Cl [Inhibitor 8] | 38.1 | 15.5 | 11.1 | 12.1 | 14.0 | 12.8 | 4.1 | 8.3 | 11.9 | 14.7 | 27.2 | 10.1
9 | Cc1[nH]c(/C=C2\C(=O)Nc3ccc(S(=O)(=O)N(C)c4cccc(Cl)c4)cc32)c(C)c1C(=O)N1CCN(C)CC1 [Inhibitor 9] | 42.5 | 67.0 | 52.6 | 74.0 | 56.7 | 68.0 | 65.7 | 56.8 | 69.1 | 70.7 | 68.6 | 65.1
